ChEMBL document CHEMBL4152237, “Identification of novel β-lactams and pyrrolidinone derivatives as selective Histamine-3 receptor (H3R) modulators as possible anti-obesity agents” (Eur J Med Chem, 2018)
Calls of active or inactive are those of the source. The rule behind the calls is not given here.

How the values were obtained:
[1] = biological target: T1, 5-hydroxytryptamine receptor 2C (Homo sapiens) (UniProt P28335); experiment: Agonist activity at human 5-HT2C expressed in HEK293 cells harboring luc2P/NFAT-RE plasmid at 10 uM after 6 to 8 hrs by luciferase reporter gene assay; assay type: functional, cell-based
T1 sequence (whole entry): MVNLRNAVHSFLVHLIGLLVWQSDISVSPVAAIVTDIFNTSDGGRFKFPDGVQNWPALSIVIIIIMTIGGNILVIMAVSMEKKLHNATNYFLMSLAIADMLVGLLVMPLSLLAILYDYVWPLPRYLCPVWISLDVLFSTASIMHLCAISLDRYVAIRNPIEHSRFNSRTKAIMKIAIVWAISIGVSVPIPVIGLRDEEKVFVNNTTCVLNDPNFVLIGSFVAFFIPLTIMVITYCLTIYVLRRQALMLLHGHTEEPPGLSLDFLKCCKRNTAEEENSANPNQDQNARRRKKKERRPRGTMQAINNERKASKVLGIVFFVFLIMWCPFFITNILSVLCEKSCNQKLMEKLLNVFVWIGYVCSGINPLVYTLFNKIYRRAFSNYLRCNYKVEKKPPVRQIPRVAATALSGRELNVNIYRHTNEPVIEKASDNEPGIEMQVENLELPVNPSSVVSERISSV

[2] = biological target: Histamine H3 receptor (Homo sapiens, UniProt Q9Y5N1); experiment: Agonist activity at human H3R expressed in HEK293 cells harboring glosensor-22F cAMP plasmid DNA assessed as inhibition of forskolin-stimulated cAMP accumulation at 10 uM preincubated with cells followed by forskolin addition measured after 10 mins by luminescence assay relative to control; assay type: functional, cell-based
Chain of Histamine H3 receptor (Q9Y5N1 whole entry): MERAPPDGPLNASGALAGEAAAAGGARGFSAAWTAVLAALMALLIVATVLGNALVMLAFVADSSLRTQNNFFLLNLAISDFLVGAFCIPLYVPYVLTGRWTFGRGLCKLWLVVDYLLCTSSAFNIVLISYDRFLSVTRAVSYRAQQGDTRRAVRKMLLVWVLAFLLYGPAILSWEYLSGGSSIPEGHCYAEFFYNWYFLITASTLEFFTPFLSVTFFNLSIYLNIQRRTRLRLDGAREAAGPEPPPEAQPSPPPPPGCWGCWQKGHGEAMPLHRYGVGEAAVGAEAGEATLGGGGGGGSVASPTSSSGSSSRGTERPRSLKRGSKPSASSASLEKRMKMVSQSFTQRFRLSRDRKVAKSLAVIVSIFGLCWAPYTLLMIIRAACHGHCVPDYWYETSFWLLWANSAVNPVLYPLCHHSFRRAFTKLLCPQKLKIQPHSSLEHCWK

Row | SMILES | Activity [1] | inhibition [2]
1 | COC1=CC2(C=C(OC)C1=O)C(c1ccccc1)=C(I)C(=O)N2C(C(=O)NC1CCCCC1)c1ccc(OC)c(OC)c1OC (stereo unspecified) | inactive | inactive
2 | CC(C)(C)NC(=O)C(c1cc2c(cc1Br)OCO2)N1C(=O)C(I)=C(c2ccccc2)C12C=CC(=O)C=C2 (stereo unspecified) | inactive | inactive
3 | COc1ccc(NC2(c3cccc(Cl)c3)C(=O)N(C(C)(C)C)C(=O)/C2=C/c2ccccc2)cc1 (stereo unspecified) | inactive | inactive
4 | Cc1ccccc1C(C(=O)NC(C)(C)C)N1C(=O)C(I)=C(c2ccccc2)C12C=CC(=O)C=C2 (stereo unspecified) | inactive | inactive
5 | COc1ccc(N2C(=O)/C(=C\c3ccccc3)C2(C(=O)NC(C)(C)C)c2ccc(Br)cc2)cc1 (stereo unspecified) | inactive | inactive
6 | O=C1C=C[C@]23C(c4ccccc4)=CC(=O)N2[C@H](c2cccc(Br)c2)C(=O)N[C@@H]3C1 | inactive | inactive
7 | O=C1C=C[C@]23C(c4ccccc4)=CC(=O)N2[C@H](c2ccc(OC(F)(F)F)cc2)C(=O)N[C@@H]3C1 | inactive | inactive
8 | COc1ccc(N2C(=O)C(=Cc3ccccc3)C2(C(=O)NC(C)(C)C)c2ccc(OC)cc2)cc1 (stereo unspecified) | inactive | inactive
9 | COc1ccc(C2=C(c3ccccc3)C3(C=CC(=O)C=C3)N(C(C(=O)NC3CCCCC3)c3ccc(OC)c(C)c3)C2=O)cc1 (stereo unspecified) | inactive | inactive
10 | COc1cc(NC2(c3cc(F)cc(F)c3)C(=O)N(C3CCCCC3)C(=O)/C2=C/c2ccccc2)cc(OC)c1OC (stereo unspecified) | inactive | inactive
11 | COc1ccc(N2C(=O)/C(=C\c3ccccc3)C2(C(=O)NC(C)(C)C)c2ccc(F)cc2)cc1 (stereo unspecified) | inactive | inactive
12 | COc1ccc(C2=C(c3ccccc3)C3(C=CC(=O)C=C3)N(C(C(=O)NC(C)(C)C)c3ccccc3C)C2=O)cc1 (stereo unspecified) | inactive | inactive
13 | COc1ccc(N2C(=O)/C(=C\c3ccccc3)C2(C(=O)NC(C)(C)C)c2cc(C)cc(C)c2)cc1 (stereo unspecified) | inactive | inactive
14 | COc1cc(OC)c(C(C(=O)NC2CCCCC2)N2C(=O)C(c3ccc(CO)cc3)=C(c3ccccc3)C23C=CC(=O)C=C3)cc1OC (stereo unspecified) | inactive | inactive
15 | COc1cc(N2C(=O)C(=Cc3ccccc3)C2(C(=O)NC(C)(C)C)c2cc(C)cc(C)c2)cc(OC)c1OC (stereo unspecified) | inactive | inactive
16 | CC(C)(C)NC(=O)C(c1ccc(C#N)cc1)N1C(=O)C(I)=C(c2ccccc2)C12C=CC(=O)C=C2 (stereo unspecified) | inactive | inactive
17 | COc1ccc(NC2(c3ccc(Cl)c(F)c3)C(=O)N(C3CCCCC3)C(=O)/C2=C/c2ccccc2)cc1OC (stereo unspecified) | inactive | inactive
18 | COc1ccc(NC2(c3cc(F)cc(F)c3)C(=O)N(C(C)(C)C)C(=O)/C2=C/c2ccccc2)cc1 (stereo unspecified) | inactive | inactive
19 | COc1ccc(N2C(=O)/C(=C\c3ccccc3)C2(C(=O)NC(C)(C)C)c2cccc(Cl)c2)cc1 (stereo unspecified) | inactive | inactive
20 | O=C1C=CC2(C=C1)C(c1ccccc1)=C(I)C(=O)N2C(C(=O)NC1CCCCC1)c1cc2c(cc1Br)OCO2 (stereo unspecified) | inactive | inactive
21 | COc1ccc(C(C(=O)NC(C)(C)C)N2C(=O)C(I)=C(c3ccccc3)C23C=CC(=O)C=C3)cc1 (stereo unspecified) | inactive | inactive
22 | COc1cc(NC2(c3ccc(Cl)c(F)c3)C(=O)N(C(C)(C)C)C(=O)/C2=C/c2ccccc2)cc(OC)c1OC (stereo unspecified) | inactive | inactive
23 | COc1ccc(NC2(c3ccc(Br)cc3)C(=O)N(C3CCCCC3)C(=O)/C2=C/c2ccccc2)cc1OC (stereo unspecified) | inactive | inactive
24 | CC(C)(C)NC(=O)C(c1ccccc1[N+](=O)O)N1C(=O)C(I)=C(c2ccccc2)C12C=CC(=O)C=C2 (stereo unspecified) | inactive | inactive
25 | Cc1ccc([C@@H]2C(=O)N[C@@H]3CC(=O)C=C[C@@]34C(c3ccccc3)=CC(=O)N24)cc1 | inactive | inactive
26 | COc1ccc(C(C(=O)NC2CCCCC2)N2C(=O)C(I)=C(c3ccccc3)C23C=CC(=O)C=C3)cc1C (stereo unspecified) | inactive | inactive
27 | COc1ccc([C@@H]2C(=O)N[C@@H]3CC(=O)C=C[C@@]34C(c3ccccc3)=CC(=O)N24)cc1 | inactive | inactive

Row | SMILES | Activity [1] | inhibition [2]
28 | COC1=CC2(C=C(OC)C1=O)C(c1ccccc1)=C(c1ccc(OC)cc1)C(=O)N2C(C(=O)NC1CCCCC1)c1cc(OC)c(OC)c(OC)c1 (stereo unspecified) | inactive | inactive
29 | O=C1C=C[C@]23C(c4ccccc4)=CC(=O)N2[C@H](c2ccc(Br)cc2)C(=O)N[C@@H]3C1 | inactive | inactive
30 | O=C1C=C[C@]23C(c4ccccc4)=CC(=O)N2[C@H](c2ccccc2)C(=O)N[C@@H]3C1 | inactive | inactive
31 | COc1ccc(C(C(=O)NC2CCCCC2)N2C(=O)C=C(c3ccccc3)C23C=CC(=O)C=C3)cc1C (stereo unspecified) | inactive | inactive
32 | O=C1C=C[C@]23C(c4ccccc4)=CC(=O)N2[C@H](c2cccc(OC(F)(F)F)c2)C(=O)N[C@@H]3C1 | inactive | inactive
33 | COc1ccc(C2(Nc3cc(OC)c(OC)c(OC)c3)C(=O)N(C3CCCCC3)C(=O)/C2=C/c2ccccc2)cc1 (stereo unspecified) | inactive | inactive
34 | COc1ccc(N2C(=O)/C(=C\c3ccccc3)C2(C(=O)NC(C)(C)C)c2ccc(C(F)(F)F)cc2)cc1 (stereo unspecified) | inactive | inactive
35 | COc1ccc(N2C(=O)C(=Cc3ccccc3)C2(C(=O)NC(C)(C)C)c2ccccc2)cc1 (stereo unspecified) | inactive | inactive
36 | COC1=CC2(C=C(OC)C1=O)C(c1ccccc1)=C(I)C(=O)N2C(C(=O)NC1CCCCC1)c1cc(OC)c(OC)c(OC)c1 (stereo unspecified) | inactive | inactive
37 | O=C1C=CC2(C=C1)C(c1ccccc1)=C(I)C(=O)N2C(C(=O)NC1CCCCC1)c1ccc(Cl)cc1 (stereo unspecified) | inactive | inactive
38 | CC(C)(C)NC(=O)C(c1ccccc1Br)N1C(=O)C(I)=C(c2ccccc2)C12C=CC(=O)C=C2 (stereo unspecified) | inactive | inactive
39 | O=C1C=C[C@]23C(c4ccccc4)=CC(=O)N2[C@H](c2ccc(Cl)cc2)C(=O)N[C@@H]3C1 | inactive | inactive
40 | COC1=CC2(C=C(OC)C1=O)C(c1ccccc1)=C(I)C(=O)N2C(C(=O)NC1CCCCC1)c1cccc([N+](=O)[O-])c1 (stereo unspecified) | inactive | inactive
41 | Cc1cc(C(C(=O)NC(C)(C)C)N2C(=O)C(I)=C(c3ccccc3)C23C=CC(=O)C=C3)cc(C)c1O (stereo unspecified) | inactive | inactive
42 | CC(C)(C)NC(=O)C(c1cccc(Cl)c1)N1C(=O)C(I)=C(c2ccccc2)C12C=CC(=O)C=C2 (stereo unspecified) | inactive | inactive
43 | O=C1C=C[C@]23C(c4ccccc4)=CC(=O)N2[C@H](c2cc(F)c(F)c(F)c2)C(=O)N[C@@H]3C1 | inactive | inactive
44 | O=C1C=CC2(C=C1)C(c1ccccc1)=C(I)C(=O)N2C(C(=O)NC1CCCCC1)c1cccc([N+](=O)[O-])c1 (stereo unspecified) | inactive | inactive
45 | O=C1C=CC2(C=C1)C(c1ccccc1)=C(I)C(=O)N2C(C(=O)NC1CCCCC1)c1ccccc1[N+](=O)[O-] (stereo unspecified) | inactive | inactive
46 | COc1ccc(NC2(c3cc(C)cc(C)c3)C(=O)N(C(C)(C)C)C(=O)/C2=C/c2ccccc2)cc1 (stereo unspecified) | inactive | inactive
47 | O=C1C=C[C@]23C(c4ccccc4)=CC(=O)N2[C@H](c2ccc(Cl)c(F)c2)C(=O)N[C@@H]3C1 | inactive | inactive
48 | COc1ccc(C2(Nc3cc(OC)c(OC)c(OC)c3)C(=O)N(C(C)(C)C)C(=O)/C2=C/c2ccccc2)cc1 (stereo unspecified) | inactive | inactive
49 | Cc1ccc(C(C(=O)NC(C)(C)C)N2C(=O)C(I)=C(c3ccccc3)C23C=CC(=O)C=C3)cc1 (stereo unspecified) | inactive | inactive
50 | COc1ccc(NC2(c3ccc(Cl)c(F)c3)C(=O)N(C(C)(C)C)C(=O)/C2=C/c2ccccc2)cc1 (stereo unspecified) | inactive | inactive
51 | COc1ccccc1[C@@H]1C(=O)N[C@@H]2CC(=O)C=C[C@@]23C(c2ccccc2)=CC(=O)N13 | inactive | inactive
52 | COC1=CC2(C=C(OC)C1=O)C(c1ccccc1)=C(c1cccc3c1OCO3)C(=O)N2C(C(=O)NC1CCCCC1)c1cc(OC)c(OC)c(OC)c1 (stereo unspecified) | inactive | inactive
53 | N#Cc1ccc([C@@H]2C(=O)N[C@@H]3CC(=O)C=C[C@@]34C(c3ccccc3)=CC(=O)N24)cc1 | inactive | –
54 | COc1ccc(N2C(=O)/C(=C\c3ccccc3)C2(C(=O)NC(C)(C)C)c2cc(F)cc(F)c2)cc1 (stereo unspecified) | inactive | –
